# In paper PMC6651548, “Synthesis and AChE Inhibitory Activity of Novel Thiazolylhydrazone Derivatives” (Molecules, 2019):
# How the values were obtained:
# AChE [1] = molecular target: T1, AChE (Homo sapiens, UniProt P22303); assay: Enzyme kinetic studies of AChE inhibition (Lineweaver-Burk plots); assay type: biochemical
# Method: . The type of inhibition was estimated by means of linear Lineweaver-Burk […], and the substrate speed curves in the presence and absence of 3a, 3c and 3i of the strongest compounds were verified in the enzyme kinetics analysis. […] In the initial velocity measurements, different substrate concentrations, ranging from 600 µM to 18.75 µM, were used for the AChE enzyme. The secondary plots of the Km/Vmax (slope) versus changing concentrations were used to determine Ki (intercept on the x-axis) values of compounds [30]. […] Reversible inhibition comprises of the ensuing subtypes: competitive, uncompetitive, noncompetitive or mixed-type. Such inhibitions can be determined using Lineweaver–Burk plots. […] Based on the gained plot, a mixed type of inhibition by compound 3c was established. That is, the compound can bind to the enzyme–substrate complex or to the free enzyme. It also means that the compound is a reversible inhibitor; reversible compounds can be bound to the enzyme by non-covalent interactions such as ionic bonds, hydrophobic interactions and hydrogen bonds deprived of any chemical bonding or reaction with the enzyme. These interactions take place quickly and can be easily reversed. For that reason, the enzyme–inhibitor complex is rapidly degraded immediately before irreversible inhibition. […]
# AChE [2] = molecular target: T1, AChE; assay: biochemical
# hMAO-B = molecular target: T2, hMAO-B (Homo sapiens, UniProt P27338); assay: biochemical
# T2 construct: purchased Sigma-Aldrich (Steinheim, Germany)
# T2 sequence (P27338 1-520): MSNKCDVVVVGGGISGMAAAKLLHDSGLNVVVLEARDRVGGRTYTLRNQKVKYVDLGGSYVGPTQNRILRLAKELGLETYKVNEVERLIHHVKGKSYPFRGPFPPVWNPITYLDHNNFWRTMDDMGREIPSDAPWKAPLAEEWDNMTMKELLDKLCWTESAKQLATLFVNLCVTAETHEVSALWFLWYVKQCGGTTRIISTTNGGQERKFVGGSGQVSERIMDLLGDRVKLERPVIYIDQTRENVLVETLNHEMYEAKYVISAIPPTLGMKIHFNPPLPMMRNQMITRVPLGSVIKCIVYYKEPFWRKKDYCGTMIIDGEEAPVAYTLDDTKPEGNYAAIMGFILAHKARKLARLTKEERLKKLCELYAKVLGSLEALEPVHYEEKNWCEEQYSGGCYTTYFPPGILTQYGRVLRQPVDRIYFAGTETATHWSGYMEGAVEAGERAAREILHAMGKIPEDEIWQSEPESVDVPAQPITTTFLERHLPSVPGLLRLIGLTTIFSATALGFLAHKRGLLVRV
# Method: Test compounds and standard drugs were used in the same concentrations as in AChE and BChE enzyme activity assays. […] To investigate the MAO-A and MAO-B enzyme inhibition profiles of the synthesized compounds, the fluorometric enzyme inhibition assay was carried out, as previously defined by us. Ampliflu™ Red (10-Acetyl-3,7-dihydroxyphenoxazine) was used as a fluorescence reagent in this assay.
# BChE = BChE (Homo sapiens, UniProt P06276); assay: Anticholinesterase activity assay (modified Ellman method), BChE; assay type: biochemical
# Chain of BChE (P06276 29-602): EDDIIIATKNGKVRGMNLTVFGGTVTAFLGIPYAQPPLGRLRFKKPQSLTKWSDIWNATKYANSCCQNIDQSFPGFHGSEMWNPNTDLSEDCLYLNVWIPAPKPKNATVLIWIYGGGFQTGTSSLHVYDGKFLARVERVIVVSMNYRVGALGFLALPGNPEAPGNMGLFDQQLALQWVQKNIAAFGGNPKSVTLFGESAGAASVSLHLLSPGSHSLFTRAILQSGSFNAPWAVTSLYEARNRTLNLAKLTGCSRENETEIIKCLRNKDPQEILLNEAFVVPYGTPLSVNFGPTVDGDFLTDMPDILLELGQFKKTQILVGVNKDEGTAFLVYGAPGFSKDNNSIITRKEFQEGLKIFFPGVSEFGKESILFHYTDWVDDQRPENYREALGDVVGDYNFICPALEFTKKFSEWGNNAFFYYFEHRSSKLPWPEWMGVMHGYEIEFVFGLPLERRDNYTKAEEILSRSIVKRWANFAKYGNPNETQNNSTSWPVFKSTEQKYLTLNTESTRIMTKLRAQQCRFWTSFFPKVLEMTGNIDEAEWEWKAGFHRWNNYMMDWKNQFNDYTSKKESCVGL
# Method: . Initially, all the obtained compounds were tested at 10^−3 M and 10^−4 M concentrations and the ChE inhibitory results are outlined in Table 1. […]. Compounds 3a, 3c and 3i indicated more than 50% activity at the 10^−4 M concentration. […]. […] According to the results of activity tests, some general results can be listed as follows. The compounds 3a, 3c and 3i contain the non-substituted, methoxy and trifluoromethyl substituents on the phenyl ring, respectively. […]
# The inhibitory capacity of the obtained compounds on AChE and BChE biological activities was assessed using a modified Ellman’s spectrometric method, as described in our previous studies. Donepezil were used as a reference drug. All pipetting procedures in the enzyme inhibition assay were carried out via a robotics system, Biotek Precision XS (Winooski, VT, USA). A BioTek-Synergy H1 microplate reader (Winooski, VT, USA) was used to carry out measurements of percent inhibition at 412 nm, and the IC50 values of the selected compounds were performed as previously described.
# hMAO-A = molecular target: T3, hMAO-A (Homo sapiens, UniProt P21397); assay: Monoamine oxidase fluorometric inhibition assay, MAO-A; assay type: biochemical
# T3 construct: purchased Sigma-Aldrich (Steinheim, Germany)
# T3 sequence (P21397 1-527): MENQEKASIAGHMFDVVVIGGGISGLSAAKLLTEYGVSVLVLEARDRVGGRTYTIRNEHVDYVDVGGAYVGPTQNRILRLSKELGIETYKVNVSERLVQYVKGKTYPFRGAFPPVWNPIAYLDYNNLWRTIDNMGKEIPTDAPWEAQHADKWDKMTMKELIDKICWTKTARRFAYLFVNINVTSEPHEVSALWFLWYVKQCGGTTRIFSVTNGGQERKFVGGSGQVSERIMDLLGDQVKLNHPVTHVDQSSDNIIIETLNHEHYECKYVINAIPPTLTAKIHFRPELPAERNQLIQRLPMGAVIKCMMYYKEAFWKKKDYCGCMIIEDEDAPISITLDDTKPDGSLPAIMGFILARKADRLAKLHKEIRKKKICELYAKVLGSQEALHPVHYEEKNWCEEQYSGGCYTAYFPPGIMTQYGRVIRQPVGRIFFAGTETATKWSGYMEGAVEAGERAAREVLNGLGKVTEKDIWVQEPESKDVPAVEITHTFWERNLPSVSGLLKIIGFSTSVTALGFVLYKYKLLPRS
# Method: In order to investigate the monoamine oxidase enzyme inhibitory effects of synthesized compounds, MAO-A and MAO-B enzyme activities were performed by using a fluorometric inhibition method. Moclobemide and selegiline were used as standard drugs for MAO-A and MAO-B enzymes, respectively. Test compounds and standard drugs were used in the same concentrations as in AChE and BChE enzyme activity assays. In Table 2, MAO enzyme inhibitory results are given. […]. To investigate the MAO-A and MAO-B enzyme inhibition profiles of the synthesized compounds, the fluorometric enzyme inhibition assay was carried out, as previously defined by us. Ampliflu™ Red (10-Acetyl-3,7-dihydroxyphenoxazine) was used as a fluorescence reagent in this assay.
# T1 sequence (P22303 32-614): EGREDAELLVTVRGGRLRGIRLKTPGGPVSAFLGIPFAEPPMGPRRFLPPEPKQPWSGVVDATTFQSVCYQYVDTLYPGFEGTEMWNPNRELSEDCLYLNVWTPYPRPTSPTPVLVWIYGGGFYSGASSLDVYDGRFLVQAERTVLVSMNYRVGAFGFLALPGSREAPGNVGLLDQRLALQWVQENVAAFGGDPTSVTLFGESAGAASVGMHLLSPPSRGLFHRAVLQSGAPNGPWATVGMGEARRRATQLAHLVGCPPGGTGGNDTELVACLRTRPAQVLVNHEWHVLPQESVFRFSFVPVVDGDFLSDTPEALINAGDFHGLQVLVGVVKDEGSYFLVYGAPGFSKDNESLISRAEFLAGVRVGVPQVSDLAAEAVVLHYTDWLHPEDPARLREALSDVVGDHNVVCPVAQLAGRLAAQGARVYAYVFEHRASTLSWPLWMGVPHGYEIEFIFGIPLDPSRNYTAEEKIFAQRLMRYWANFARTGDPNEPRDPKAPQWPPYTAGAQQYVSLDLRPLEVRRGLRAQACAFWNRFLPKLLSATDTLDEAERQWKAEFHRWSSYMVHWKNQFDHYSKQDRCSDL
smiles,measurement,setting,value
"COc1ccc(-c2csc(NN=Cc3ccc(N4CCN(c5ccc(F)cc5)CC4)cc3)n2)cc1 [Compound 3c, 2-(2-(4-(4-(4-fluorophenyl)piperazin-1-yl)benzylidene)hydrazineyl)-4-(4-methoxyphenyl)thiazole]",type of inhibition,"AChE [1]; Lineweaver–Burk plots, 2 × IC50, IC50 and IC50/2, substrate 600 µM to 18.75 µM",mixed type
same,Ki,"AChE [1]; secondary plot of Km/Vmax (slope) versus inhibitor concentration, read-out: steady-state inhibition constant (Ki)",19.7 nM
same,inhibition at 1000 µM,AChE [2]; 10^−3 M,88.5 ± 1.1%
same,IC50,AChE [2]; 10^−3–10^−9 M concentrations,31.7 ± 1 nM
same,inhibition at 1000 µM,"hMAO-B; 10^−3 M, read-out: MAO-B % Inhibition",85.1 ± 1%
same,inhibition at 100 µM,"hMAO-B; 10^−4 M, read-out: MAO-B % Inhibition",70.3 ± 0.85%
same,IC50,hMAO-B; read-out: MAO-B IC50,1020 ± 42 nM
same,inhibition at 1000 µM,BChE; 10^−3 M,28 ± 0.43%
same,inhibition at 100 µM,BChE; 10^−4 M,21.6 ± 0.65%
same,inhibition at 1000 µM,hMAO-A; 10^−3 M,38.6 ± 0.58%
same,inhibition at 100 µM,hMAO-A; 10^−4 M,21.8 ± 0.55%
